According to publication PMC9866191, “Novel 9-Benzylaminoacridine Derivatives as Dual Inhibitors of Phosphodiesterase 5 and Topoisomerase II for the Treatment of Colon Cancer” (Molecules, 2023):

Experiments:
PDE5 = tested on: PDE5; set-up: method as in PMID 29656464; conditions: Figure 1; cited from earlier work
CCD-966SK = assay: MTT cell proliferation assay, CCD-966SK; conditions: CCD966SK skin fibroblast; 10 µM; 72 h MTT
HCT-116 = assay: MTT cell proliferation assay, HCT-116; conditions: for % Inhibition at 10 µM: 72 h MTT, means ± SD
PDE5A = target: T1, PDE5A (Homo sapiens, UniProt O76074); assay: Phosphodiesterase 5 HTRF cGMP assay; format: biochemical
T1 construct: purchased BPS Bioscience, San Diego, CA, USA
Procedure: All the synthesized acridine derivatives were tested for their in vitro ability to inhibit PDE5A at a screening dose of 10 µM.
The enzyme activities of phosphodiesterase 5 (PDE5) were measured using an HTRF cGMP assay kit (Cisbio, Codolet, France). […] Afterward, the HTRF reagent (cGMP-d2 and anti-cGMP-cryptate) was added for 1 h at 25 °C, and PDE activity was assayed on an HTRF reader (Tecan Infinite F200 Pro).

## c1ccc(CNc2ncnc3sc4c(c23)CCCCC4)cc1 [B]
PDE5
  IC50: 0.19 µM

## c1ccc(CNc2ncnc3sc4c(c23)CCC4)cc1 [C]
PDE5
  IC50: 0.42 µM

## c1csc(CNc2c3ccccc3nc3ccccc23)c1 [Compound 15, Acridin-9-yl-thiophen-2-ylmethyl-amine]
CCD-966SK
  % Inhibition at 10 µM: 11.54 ± 0.04%
HCT-116
  % Inhibition at 10 µM: 39.65 ± 4.72%
PDE5A; means ± S.D. (n = 4), read-out: PDE5 IC50
  IC50: 6.43 ± 1.3 µM
PDE5A; read-out: PDE5 % Inhibition at 10 μM
  inhibition at 10 µM: 58.4 ± 1.47%
other
  melting point: 121 to 123 °C

## N.N.[Cl][Pt][Cl] [cisplatin, reference compound]
CCD-966SK
  % Inhibition at 10 µM: 38.73 ± 5.19%
HCT-116
  % Inhibition at 10 µM: 83.00 ± 0.38%
HCT-116; read-out: IC50 μM, 72 h MTT, means ± SD, three experiments
  IC50: 3.62 ± 0.19 µM
